Assay results from article PMC6332026, “Synthesis and Pharmacochemistry of New Pleiotropic Pyrrolyl Derivatives” (Molecules, 2015).
Entries after “also recorded” stand apart in the source; their conditions may differ. Marks after values point to notes of the source that are not given here.

How the values were obtained:
COX-2 = molecular target: T1, COX-2 (Homo sapiens, UniProt P35354); experiment: Inhibition of cycloxygenase-2 (colorimetric TMPD assay); settings: for inhibition at 100 µM: read-out: COX-2 % inhibition; for COX-2 % inhibition: 100 μM
T1 sequence (P35354 18-604): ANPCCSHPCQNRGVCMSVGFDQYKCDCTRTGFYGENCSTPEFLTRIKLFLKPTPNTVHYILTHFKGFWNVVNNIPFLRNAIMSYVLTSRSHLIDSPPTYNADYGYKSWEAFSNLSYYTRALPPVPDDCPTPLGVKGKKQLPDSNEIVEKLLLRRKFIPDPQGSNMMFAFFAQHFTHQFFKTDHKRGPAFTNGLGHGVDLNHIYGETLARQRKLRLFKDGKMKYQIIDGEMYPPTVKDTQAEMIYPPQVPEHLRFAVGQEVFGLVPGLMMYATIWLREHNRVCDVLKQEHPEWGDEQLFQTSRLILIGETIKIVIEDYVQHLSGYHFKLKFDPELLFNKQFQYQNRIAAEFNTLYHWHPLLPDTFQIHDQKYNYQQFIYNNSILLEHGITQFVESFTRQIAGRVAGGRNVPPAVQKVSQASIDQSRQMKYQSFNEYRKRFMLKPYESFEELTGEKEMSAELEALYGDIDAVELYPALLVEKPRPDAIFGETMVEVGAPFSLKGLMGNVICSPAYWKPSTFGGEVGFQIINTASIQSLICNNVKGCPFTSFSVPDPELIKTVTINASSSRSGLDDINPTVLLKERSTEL
Method: The inhibition of COX-2, as a peroxidase, was determined by a colorimetric assay with the oxidation of N,N,N′,N′-tetramethyl-p-phenylenediamine (TMPD).
COX-2 inhibitory activity was determined by using arachidonic acid (AA) as a substrate in buffer (0.1 M Tris pH 8.5) and TMPD as a co-substrate.

[1] = test system: carrageenan-induced rat paw edema; experiment: Inhibition of rat paw edema induced by carrageenan; type: in vivo, Fischer 344 rats; settings: intraperitoneally, 3.5 h; for inhibition in vivo at 10 µmol/kg: Rattus norvegicus, ip, 0.01 mmol/kg body weight, read-out: CPE % inhibition of rat paw edema induced by carrageenan
Method: The pyrrolyl derivatives, as well as their precursor chalcones were tested in vivo for the inhibition of rat paw edema induced by carrageenan. […] […]. For Compounds 2i, 2iii, 2iv and 2v, we determined their ED50 values. […]. The finding supports the primary idea of this design.
Edema was induced in the right hind paw of Fischer 344 rats (150–200 g). In the study, both males and females were included, with the exemption of pregnant females. The animals, which have been bred in our laboratory, were housed under standard conditions and received a diet of commercial food pellets and water ad libitum during maintenance. One hour before the onset of the experiment, food and water were removed. The tested compounds (dose 0.01 mmol/kg body weight) were diluted in water with a few drops of Tween 80, and they were administered intraperitoneally simultaneously with the intradermal injection of 0.1 mL 2% of carrageenan in water. The animals were euthanatized 3.5 h after the carrageenan administration. The difference between the weight of injected and uninjected paws was calculated for each animal and was compared to control animals, which were treated with water. Indomethacin was used as a reference compound in 0.01 mmol/kg. The results were expressed as the percent inhibition of the edema (CPE %).

[2] = Inhibition of heme-dependent lipid peroxidation of linoleic acid (TBA method); settings: pH 7.4, 37 °C; read-out: LP IC50 (inhibition of heme-dependent lipid peroxidation of linoleic acid)
Method: The anti-lipid peroxidation activity was determined through the inhibition of heme-dependent lipid peroxidation. The peroxidation of sodium linoleate is induced from a mixture of heme and hydrogen peroxide, which produces free radicals from the side chains of amino acids. The assay is performed at pH 7.4 with a phosphate buffer, and the products of peroxidation are identified with the thiobarbituric acid method (TBA). In particular, malonic dialdehyde, a final product of lipid peroxidation, reacts with TBA and forms a colored product, whose absorbance is measured at 535 nm. […] Compounds 2ii and 2vi with low Clog P values are weak inhibitors of lipid peroxidation. It seems that the increase of volume of Ar^1, measured as molar refractivity MR (Ar^1), enhances IC50 values and reduces the inhibitory activity (2i and 2iii; and 2ii, 2iv and 2vi). For derivatives 2iv and 2v, the presence of an electron-acceptor, e.g., a chloro-substituent on the phenyl ring (Ar^2), diminishes the anti-lipid peroxidation activity.
Firstly, 0.4 mL of heme (50 μΜ), 0.25 mL of sodium linoleate (400 μΜ), 0.1 mL of the solutions of the tested compounds (concentrations varying from 10–100 μΜ in DMSO) and 0.25 mL of H2O2 (500 μΜ) were incubated for 10 min in 37 °C in a phosphate buffer (KH2PO4–KOH 50 mM, pH 7.4). The peroxidation products were identified with the reaction of thiobarbituric acid, by adding successively 0.5 mL of 40% trichloroacetic acid (TCA) and 0.5 mL of 2% of thiobarbituric acid (TBA). The addition was followed by stirring and heating at 90 °C for 20 min, and then, 1 mL of acetic acid and 1 mL of chloroform were added and the absorbance measured at 535 nm. IC50 values were determined.

[3] = Lipophilicity as RM values by reverse-phase thin layer chromatography (RPTLC); type: physicochemical; settings: methanol/water 75/25 v/v with ammonia drops
From the text: Since lipophilicity is a significant physicochemical property determining the absorption, distribution, metabolism and excretion properties (ADME) of drugs, we attempted to determine experimentally the lipophilicity as RM values with reverse-phase thin layer chromatography (RPTLC). Lipophilicity was also theoretically calculated as Clog P values. According to the calculated Clog P values, the most lipophilic compounds were 2iii (6.37) and 2v (6.04). However, this observation was not supported by the RM values, since Compound 2iii presented very low lipophilicity (−0.061). Furthermore, the lipophilicity of Compound 2v could not be determined experimentally under the reported conditions. Attempts to correlate Clog P and RM values failed. From our results (Table 2), it can be concluded that RM values could not be used as a successful relative measure of the overall lipophilic/hydrophilic properties of these molecules. Tentatively, this can be attributed to the different nature of the hydrophilic and lipophilic phases in the two systems. Clog P refers to n-octanol/water, whereas RM in this case refers to methanol/water. Moreover, it is likely that pyrrole derivatives form hydrogen bonds within the hydrophilic phase.
Reverse-phase thin layer chromatography (RPTLC) was used for the determination of RM values. Silica gel plates were saturated with 5% v/v liquid paraffin in petroleum ether, and the mobile phase was methanol/water (75/25 v/v) with the addition of ammonia drops. Spots were detected under UV light. RM values were determined by the corresponding Rf values (from five measurements for each compound) using the equation [43]: RM = log[(1/Rf) − 1](1)

SMILES | inhibition at 100 µM (COX-2) | melting point | inhibition in vivo at 10 µmol/kg [1] | ED50 (carrageenan rat paw edema) [1] | IC50 [2] | RM [3] | COX-2 % inhibition (COX-2)
O=C(c1ccc(Cl)cc1)c1c[nH]cc1-c1cccc2ccccc12 [Compound 2v, (4-Chlorophenyl)[4-(naphth-1-yl)-1H-pyrrol-3-yl]methanone] | 81% | 285 to 286 °C | 78% | 0.063 mmol/kg Body Weight | 150 µM |  | 
O=C(c1cccs1)c1c[nH]cc1-c1ccc(OCc2ccc(Br)cc2)cc1 [Compound 2iii, (4-{4-[(4-Bromobenzyl)oxy]phenyl}-1H-pyrrol-3-yl)(thien-2-yl)methanone] |  | 233 to 235 °C | 89% | 0.052 mmol/kg Body Weight | 100 µM | −0.061 | inactive; also recorded: without any activity
O=C(c1ccccc1)c1c[nH]cc1-c1cccc2ccccc12 [Compound 2iv, [4-(Naphth-1-yl)-1H-pyrrol-3-yl](phenyl)methanone] |  | 270 to 272 °C | 75% |  | 72 µM | −0.149 | inactive
O=C(c1cccs1)c1c[nH]cc1-c1cccc(Oc2ccccc2)c1 [Compound 2i, [4-(3-Phenoxyphenyl)-1H-pyrrol-3-yl](thien-2-yl)methanone] | 67.2% | 165 to 166 °C |  | 0.061 ^c mmol/kg Body Weight | 40 µM | 0.091 | 
